Read-outs that look alike come from different tables or passages of the source.
What was measured:
γ-secretase complex = γ-secretase complex (Homo sapiens, UniProt P49768); assay: APP-C99 counter assay (GSI reporter assay); type: cell-based; set-up: AUC APP: scale not given here; conditions: for Hill-slope / curve fit information: 14p APP assay DR; for AUC APP: area under the 14-point dose-response curve, replicates averaged; for remaining activity at 10 µM / remaining activity at 25 µM / remaining activity at […]: 24 h, APP-C99 counter assay, read-out: 3p-DR in % of DMSO counter; for remaining activity at […]: 1,25µM
Method in brief: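 γ-secretase activity reported via APP cleavage driving firefly luciferase, normalized to renilla. After 24 h transfection then 24 h compound exposure, signals were read (0.1 s integration). Triplicate dose–responses fitted by variable-slope four-parameter model for IC50; area under curve also derived.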

Notch signalling = assay: Notch reporter assay (12xCSL firefly luciferase / renilla luciferase, HEK293T Notch1ΔE reporter cell line clone #A1-11); type: cell-based; set-up: AUC Notch: scale not given here; conditions: for Bottom (Emax): Emax indicated independent from assay constraints, in % (unit assumed); for IC50 / activity at 10 µM / activity at 25 µM / activity: Homo sapiens, HEK-293T; for AUC Notch: area under the 14-point dose-response curve, replicates averaged; for activity: 1,25µM
Method in brief: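 Compounds at two-fold concentration in 10 µl medium were brought to one-fold by adding 10 µl holding 4000 Notch reporter cells (clone #A1-11) per well of a 384-well plate. After 24 h, Promega dual-GLO firefly and renilla luciferase were read on a SpectraMaxi3. Dose-response curves were fitted with a log(inhibitor) vs. response variable-slope model.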

[1] = bottom constrained to Emax of positive control LY-411575
[2] = 14-point dose-response, Fig. 4, read-out: approximated IC50, Notch reporter assay
[3] = 14p Notch assay DR, bottom constrained to Emax of positive control DAPT, read-out: approximated IC50
[4] = 14p Notch assay DR, log10 value, bottom constrained to Emax of positive control DAPT, read-out: approximated LogIC50 (converted)
[5] = 10 µM, primary screen, 24 h, unit from Fig. 2 legend, read-out: Primary screen at 10 µM (Notch reporter signal)
[6] = 10 µM, three-dose confirmation screen, unit from Fig. 2 legend, read-out: Hit confirmation at 10 µM (Notch reporter signal)
[7] = 10µM, 3-point DR confirmation screen, Notch reporter assay, read-out: inhibitor ratio in % of DMSO in 3 point DR
[8] = 10 µM, sheet conf vs counter 10 µM, same values as 3-point DR confirmation screen, read-out: Confirmation screen
[9] = 25µM, 3-point DR confirmation screen, Notch reporter assay, read-out: inhibitor ratio in % of DMSO in 3 point DR
[10] = 25 µM, Notch reporter 3-point dose-confirmation assay, sheet "conf vs counter 25 µM", read-out: Confirmation screen
[11] = 3-point DR confirmation screen, Notch reporter assay, read-out: inhibitor ratio in % of DMSO in 3 point DR

SMILES | Hill-slope (γ-secretase complex; [1]) | AUC APP (γ-secretase complex) | curve fit information (γ-secretase complex; [1]) | IC50 (Notch signalling; [3]) | IC50 (Notch signalling; [4]) | remaining activity at 10 µM (γ-secretase complex) | remaining activity at 25 µM (γ-secretase complex) | remaining activity at […] (γ-secretase complex) | Bottom (Emax) (Notch signalling; 14p Notch assay DR) | AUC Notch (Notch signalling) | activity at 10 µM (Notch signalling; [5]) | activity at 10 µM (Notch signalling; [6]) | activity at 10 µM (Notch signalling; [7]) | activity at 10 µM (Notch signalling; [8]) | activity at 25 µM (Notch signalling; [9]) | activity at 25 µM (Notch signalling; [10]) | activity (Notch signalling; [11]) | other results
Cc1ccccc1C(=O)NC(=S)Nc1sc2c(c1C(N)=O)CCC2 [CBK262107] | 0.0876 | 533.6 |  |  |  |  |  |  | 90.8 | 379.0 |  |  |  |  |  |  |  | IC50 (Notch signalling; [2]): > 40 µM
CCn1ncc(CN(C)C(=O)c2cc(-c3cccnc3)nc3ccc(Cl)cc23)c1C [CBK276708] |  | 735.5 | IC50 indeterminate | 10 µM | 10 µM |  |  |  | 29.2 | 559.0 |  |  |  |  |  |  |  | IC50 (Notch signalling; [2]): > 5 µM
CCOc1ccccc1-c1ccccc1NC(=O)c1ccc2c(c1)ncn2C1CC1 [CBK285808] | 0.0761 | 538.6 |  | 5.1 µM | 5.01 µM | 165% | 197% | 113% | 26.5 | 300.0 | 35.1% | 64.7% | 64.7% | 64.7% | 45.7% | 45.7% | 102% | 
Cc1[nH]c2cccc(C(=O)N3CCCCC3CCNC(=O)c3ccccc3)c2c1C (stereo not shown) [CBK285976] | -2.25e-11 | 774.2 | IC50 indeterminate | 3.5 µM | 3.16 µM | 145% | 135% | 126% |  | 532.0 | 37.7% | 54.9% | 54.9% | 54.9% | 38.3% | 38.3% | 100% | Hill-slope (γ-secretase complex; bottom constrained to Emax of positive control CB-103): 0.344; IC50 (Notch signalling; 14p Notch assay DR, averaged when replicate measurements were available, read-out: averaged IC50s): 3.2 µM; IC50 (Notch signalling; 14p Notch assay DR, bottom constrained to Emax of positive control RO4929097, read-out: approximated IC50): 3 µM; IC50 (Notch signalling; 14p Notch assay DR, log10 value, bottom constrained to Emax of positive control RO4929097, read-out: approximated LogIC50 (converted)): 3.16 µM
CC(=O)N1CCc2sccc2C1c1ccccc1NCc1ccoc1 (stereo not shown) [CBK286432] | -0.0118 |  |  |  |  | 152% | 184% | 147% |  |  | 37.6% | 57.2% | 57.2% | 57.2% | 45.5% | 45.5% | 88.7% | 
CC(=O)N1CCc2sccc2C1c1ccccc1NC(=O)c1ccco1 (stereo not shown) [CBK286436] |  | 642.7 | IC50 indeterminate |  |  |  |  |  | 99.7 | 629.0 |  |  |  |  |  |  |  | 
O=C(Nc1nnc(-c2ccc3c(c2)OCCO3)o1)c1cccc(F)c1 [CBK287402] |  | 499.9 | IC50 indeterminate |  |  |  |  |  | 87.8 | 353.0 |  |  |  |  |  |  |  | 
O=C(Nc1nnc(-c2ccc3c(c2)OCCO3)o1)c1ccccc1F [CBK287405] |  | 502.9 | IC50 indeterminate | 3 µM | 3.16 µM | 137% | 153% | 124% | 15.0 | 288.0 | 36.4% | 44% | 44% | 44% | 37.6% | 37.6% | 85.1% | 

Second part, led by results:

Hill-slope (γ-secretase complex; [1]) | AUC APP (γ-secretase complex) | curve fit information (γ-secretase complex; [1]) | IC50 (Notch signalling; [3]) | IC50 (Notch signalling; [4]) | remaining activity at 10 µM (γ-secretase complex) | remaining activity at 25 µM (γ-secretase complex) | remaining activity at […] (γ-secretase complex) | SMILES | Bottom (Emax) (Notch signalling; 14p Notch assay DR) | AUC Notch (Notch signalling) | activity at 10 µM (Notch signalling; [5]) | activity at 10 µM (Notch signalling; [6]) | activity at 10 µM (Notch signalling; [7]) | activity at 10 µM (Notch signalling; [8]) | activity at 25 µM (Notch signalling; [9]) | activity at 25 µM (Notch signalling; [10]) | activity (Notch signalling; [11]) | other results
-1.2 | 490.0 |  |  |  |  |  |  | COc1cccc(-c2nnc(NC(=O)c3ccc4c(c3)OCCO4)o2)c1 [CBK287591] | 88.3 | 363.0 |  |  |  |  |  |  |  | 
-0.00263 | 662.9 |  | 3.2 µM | 3.16 µM | 115% | 129% | 119% | Cc1ccc(-c2noc([C@@H]3Cc4[nH]cnc4CN3C(=O)CCC(=O)O)n2)cc1 [CBK288958] | 57.4 | 600.0 | 50.2% | 49.6% | 49.6% | 49.6% | 32.2% | 32.2% | 87.5% | 
-6.4 | 443.8 |  | 5.4 µM | 5.01 µM | 120% | 78.7% | 112% | COc1ccc(C(=O)N2Cc3nc[nH]c3C[C@H]2c2nc(-c3ccc(OC)cc3)no2)cc1 [CBK288966] | 57.5 | 299.0 | 57.1% | 58.5% | 58.5% | 58.5% | 61.1% | 61.1% | 83.6% | 
0.121 | 566.4 |  | 5 µM | 5.01 µM | 129% | 156% | 92.5% | Cc1ccccc1Nc1nc(N)nc(CN2CCCC(C(F)(F)F)C2)n1 (stereo not shown) [CBK305073] | 32.5 | 305.0 | 39.6% | 65.1% | 65.1% | 65.1% | 48.4% | 48.4% | 102% | 
0.121 | 578.1 |  | 7.1 µM | 7.94 µM | 118% | 144% | 96.6% | CC1CCc2c(sc3ncnc(NCCCN4CCCCCC4=O)c23)C1 (stereo not shown) [CBK305947] | 34.4 | 316.0 | 41.4% | 66.5% | 66.5% | 66.5% | 46.7% | 46.7% | 107% | 
